Test results taken from US5786480A, “4-substituted pyrazoloquinoline derivatives” (Schering Corporation, priority 1996, dated 1998).
≈ marks a conversion by molar mass, not a printed value.

Columns and labels:
[1] = tested on: HSV Early Gene Expression; assay: Transient Expression Assay for Effects Against HSV Early Gene Expression (beta Galactosidase Assay, βgal); assay type: cell-based
Method: (§1) The compound toxicity assay (3H-LEU), Plaque Reduction Assay for HSV Antiviral Activity (Plaque), and Transient Expression Assay for Effects Against HSV Early Gene Expression (β Galactosidase Assay or βgal) were carried out as set forth in U.S. Pat. No. 5,175,151 which is hereby incorporated by reference.

[2] = compound toxicity assay (3H-LEU); assay type: cell-based
Method: as §1

HSV [3] = assay: Plaque Reduction Assay for HSV Antiviral Activity (Plaque); assay type: cell-based
Method: as §1

herpes virus [4] = settings: mammals; Haines et al., U.S. Pat. No. 4,757,088; cited from earlier work
HSV-1 = settings: Haines et al., U.S. Pat. No. 4,757,088; cited from earlier work
herpes virus [5] = settings: addition of panthothenic acid or its alcohol and salt forms, dexpanthenol and pantothenate; Haines et al.; cited from earlier work
HSV [6] = settings: humans; Haines et al.; cited from earlier work
HSV-2 = settings: Haines et al., U.S. Pat. No. 4,757,088; cited from earlier work

Compound: CCCCNc1c2cc(C)ccc2nc2[nH]nc(C)c12 [(18)]
- IC50 [1]: 3 µg/mL (≈ 11.2 µM)
- CC50 [2]: 21.5 µg/mL (≈ 80.1 µM)

Compound: COc1ccc2nc3[nH]nc(C)c3c(NCCO)c2c1 [(3)]
- IC50 [1]: 1.3 µg/mL (≈ 4.77 µM)
- IC50 (HSV [3]): 2.3 µg/mL (≈ 8.45 µM)
- CC50 [2]: 8.2 µg/mL (≈ 30.1 µM)

Compound: CCCCNc1c2cc(OC)ccc2nc2[nH]nc(C)c12 [(17)]
- IC50 [1]: < 3 µg/mL
- CC50 [2]: 3.2 µg/mL (≈ 11.3 µM)

Compound: COc1ccc2nc3[nH]nc(C)c3c(NCC(=O)NCCN3CCCCC3)c2c1 [(29)]
- IC50 [1]: 6 µg/mL (≈ 15.1 µM)
- IC50 (HSV [3]): 20 µg/mL (≈ 50.4 µM)

Compound: COc1ccc2nc3c(c(C)nn3C(=O)[C@@H](C)N)c(Cl)c2c1 [(33)]
- IC50 [1]: 0.5 µg/mL (≈ 1.57 µM)
- IC50 (HSV [3]): 0.2 µg/mL (≈ 0.627 µM)

Compound: COc1ccc2nc3c(cc2c1)c(C)nn3C(=O)[C@@H](N)C(C)C [(21)]
- IC50 [1]: 0.2 µg/mL (≈ 0.64 µM)
- IC50 (HSV [3]): 20 µg/mL (≈ 64 µM)

Compound: CCN(CC)CC(=O)Nc1c(C)cccc1C [lidocaine, 2-(diethylamino)-N-(2,6-dimethylphenyl)acetamide]
- able to treat herpes virus infections (herpes virus [4]): able to treat herpes virus infections of mammals
- antiviral agent in cell culture against HSV-1 (HSV-1): antiviral agent in cell culture against HSV-1
- enhancement of antiviral activity (herpes virus [5]): significantly enhances
- effective in the treatment of HSV oral and genital lesions (HSV [6]): particularly effective
- antiviral agent in cell culture against HSV-2 (HSV-2): antiviral agent in cell culture against HSV-1 and HSV-2

Compound: COc1ccc2nc3[nH]nc(C)c3c(NCCOCCO)c2c1 [(1)]
- IC50 [1]: 5 µg/mL (≈ 15.8 µM)

Compound: CCC(C)[C@H](N)C(=O)n1nc(C)c2c(Cl)c3cc(OC)ccc3nc21 (some centres unmarked) [(31)]
- IC50 [1]: 0.2 µg/mL (≈ 0.554 µM)
- IC50 (HSV [3]): 0.8 µg/mL (≈ 2.22 µM)

Compound: CCCCNc1c2cc(OC)cc(C)c2nc2[nH]nc(C)c12 [(19)]
- IC50 [1]: 3 µg/mL (≈ 10.1 µM)
- CC50 [2]: 21.5 µg/mL (≈ 72.1 µM)

Compound: COc1ccc2nc3c(cc2c1)c(C)nn3C(=O)C(C)(C)N [(25)]
- IC50 [1]: 0.2 µg/mL (≈ 0.67 µM)
- IC50 (HSV [3]): 20 µg/mL (≈ 67 µM)

Compound: COc1ccc2nc3c(c(C)nn3C(=O)[C@@H](N)C(C)C)c(NCCN3CCOCC3)c2c1 [(23)]
- IC50 [1]: 0.2 µg/mL (≈ 0.454 µM)
- IC50 (HSV [3]): 20 µg/mL (≈ 45.4 µM)

Compound: COc1ccc2nc3[nH]nc(C)c3c(NCCc3ccccn3)c2c1 [(5)]
- IC50 [1]: 1 µg/mL (≈ 3 µM)
- IC50 (HSV [3]): 7.5 µg/mL (≈ 22.5 µM)

Compound: COc1ccc2nc3[nH]nc(C)c3c(NCCCN(C)C)c2c1 [(20)]
- IC50 [1]: 0.8 µg/mL (≈ 2.55 µM)

Compound: COc1ccc2nc3[nH]nc(C)c3c(NCCN3CCOCC3)c2c1 [(4)]
- IC50 [1]: 20 µg/mL (≈ 58.6 µM)
- IC50 (HSV [3]): 10 µg/mL (≈ 29.3 µM)
- CC50 [2]: 100 µg/mL (≈ 293 µM)

Compound: COc1ccc2nc3c(cc2c1)c(C)nn3C(=O)[C@H](C)N [(22)]
- IC50 [1]: 0.2 µg/mL (≈ 0.703 µM)
- IC50 (HSV [3]): 0.2 µg/mL (≈ 0.703 µM)

Compound: COc1ccc2nc3[nH]nc(C)c3c(NCC(=O)NCCN3CCOCC3)c2c1 [(30)]
- IC50 [1]: 2 µg/mL (≈ 5.02 µM)
- IC50 (HSV [3]): 20 µg/mL (≈ 50.2 µM)

Compound: COc1ccc2nc3[nH]nc(C)c3c(NCC(=O)NCCCN3CCCC3=O)c2c1 [(28)]
- IC50 [1]: 2 µg/mL (≈ 4.87 µM)
- IC50 (HSV [3]): 20 µg/mL (≈ 48.7 µM)

Compound: CNCC(=O)n1nc(C)c2cc3cc(OC)ccc3nc21 [(24)]
- IC50 [1]: 0.2 µg/mL (≈ 0.703 µM)
- IC50 (HSV [3]): 2 µg/mL (≈ 7.03 µM)

Compound: COc1ccc2nc3c(c(C)nn3C(=O)[C@H](C)N)c(Cl)c2c1 [(32)]
- IC50 [1]: 1.8 µg/mL (≈ 5.65 µM)
- IC50 (HSV [3]): 0.2 µg/mL (≈ 0.627 µM)

Compound: COc1ccc2nc3[nH]nc(C)c3c(NCC(=O)O)c2c1 [(27)]
- IC50 [1]: 20 µg/mL (≈ 69.9 µM)
